Where “and” joins values, the source holds several entries; their conditions need not be identical. Equal values may be shown once.
Assay: Comparative clinical study: bone mineral density by dual-energy X-ray absorptiometry at vertebrae (L2-L4) and femoral neck
Assay type: in vivo, postmenopausal women
Conditions: 48 months; for increase in bone mineral density in the vertebrae (mean percentage change) / increase in bone mineral density in the femoral neck: all subjects; for increase in bone mineral density in the femoral neck (percentage change) / increase in bone mineral density in the vertebrae (mean change from baseline): osteopenic/osteoporotic subjects; for mean change from baseline in BMD in vertebrae: subjects with normal BMD at baseline
Source text: The subjects used in the study were 419 postmenopausal women, aged 45 to 65 years. Eligible women had to be at least 3 years postmenopausal with normal gynecological findings, an intact uterus and a body mass index of 30 or less. Major medical exclusion criteria included endometrial hyperplasia and pathological mammography findings, prior hormone-dependent malignancies, severe thyroid diseases, and other criteria typical for HRT studies. Excessive smokers and alcohol abusers were excluded. Otherwise the women were not required to change their daily diet or other lifestyle habits for the study period.
Subjects were randomly assigned to six treatment groups to receive one tablet daily containing one of the following dose combinations: 1 mg or 2 mg of estradiolvalerate (E2V) combined to 2.5 mg or 5 mg of medroxyprogestrone acetate (MPA) (Indivina®, Orion Corporation, Espoo, Finland).
Groups changing from 1 mg E2V to 2 mg E2V irrespective of the MPA (Group I and II) were pooled together. Groups receiving 1 mg of E2V throughout the study irrespective of the MPA dose (Group V and VI) were pooled together. Also groups receiving 2 mg of E2V throughout the study irrespective of the MPA dose (Group III and IV) were pooled together. Pooling was considered justified since MPA is not expected to affect the response of estrogen on bone mineral density (BMD).
The bone mineral densities at the vertebrae and the hip were measured using dual-energy X-ray absorptiometry (DPX) at baseline, 6-, 12-, 24, 36- and 48-month follow-up visits, and at premature discontinuation. The BMD from the hip was measured by three separate measurements at the femur neck, Ward's triangle, major trochanter and BMD from the vertebrae was measured at L2-L4. In addition, the area and bone mineral content (BMC) of vertebrae L2-L4 were determined.
Results were further analysed to compare the effect varying dosages on BMD in groups that had either normal, osteopenic or osteoporotic BMD value at baseline. Subjects were classified as osteopenic if the BMD was 0.90 to 1.08 g/cm^2 in vertebrae (L2-L4) and 0.68 to 0.86 g/cm^2 in femoral neck (corresponds to T score between −1 and −2.5 in Finnish population). BMD was regarded as normal if the values were above 1.08 g/cm^2 in vertebrae and above 0.86 g/cm^2 in femoral neck. Values below 0.90 g/cm^2 in vertebrae and below 0.68 /cm^2 in femoral neck were considered as osteoporotic.

[1] = daily 1 mg E2V first 6 months then 2 mg E2V

For `CCCCC(=O)O[C@H]1CC[C@H]2[C@@H]3CCc4cc(O)ccc4[C@H]3CC[C@]12C` [E2V, estradiol valerate], the “increase in bone mineral density in the vertebrae (mean percentage change)” value (“increase … (mean percentage change)” below) (daily 1 mg E2V first 6 months then 2 mg E2V (Groups I+II pooled, with MPA)) was 8.9%, the “increase in bone mineral density in the femoral neck” value [1] was 4.2% and 4.3% and the “increase … (mean percentage change)” value (daily 1 mg E2V whole term (Groups V+VI pooled, with MPA)) was 6.2%. The “increase in bone mineral density in the femoral neck” value (daily 1 mg E2V whole term) was 2.9%, the “increase … (mean percentage change)” value (daily 2 mg E2V whole term (Groups III+IV pooled, with MPA)) was 7.4% and the “increase in bone mineral density in the femoral neck” value (daily 2 mg E2V whole term) was 2.9%. The “increase in bone mineral density in the femoral neck (percentage change)” value (“increase … (percentage change)” for short) [1] was 6.4%, the “increase in bone mineral density in the vertebrae (mean change from baseline)” value (shortened to “increase … (mean change from baseline)”) [1] was 9.4% and the “increase … (percentage change)” value (daily 1 mg E2V whole term) was 3.8%. For the same compound, the “increase … (mean change from baseline)” value (daily 1 mg E2V whole term) was 7.7%, the “increase … (percentage change)” value (daily 2 mg E2V whole term) was 3.5% and the “increase … (mean change from baseline)” value (daily 2 mg E2V whole term) was 7.3%. For the same compound, the “mean change from baseline in BMD in vertebrae” value (from here on “mean change … in vertebrae”) [1] was 8.3%, the “mean change … in vertebrae” value (daily 1 mg E2V whole term) was 4.7% and the “mean change … in vertebrae” value (daily 2 mg E2V whole term) was 7.5%.
